Data reported in US20170325453A1, “Herbicidal Mixtures for Controlling Herbicide-Resistant Dicotyledonous Plants” (priority 2014, published 2017).

Assays:
Format in all cases: in vivo
[1] = test system: Trichachne insularis (Digitaria insularis); test: Example 2: visual control of Trichachne insularis (Digitaria insularis), post emergence (Table 16); details: visual control 0-100%, dose per numbered treatment
Experimental: (§1) The study was carried out in Brazil.
(§2) All treatments were applied in established weeds, post emergence, before weeds flowering. The treatments were applied using backpressure equipment (nozzles TEEJET8002) with a water consumption of 150 liters per hectare, 1.2 BAR.
(§3) 14, 21, 28, 35 and 42 days after application (“DAA”) evaluations were carried out, i.e. measuring the control of Trichachne insularis (Digitaria insularis) and its regrowth. The assessment consisted in a visual control level of weeds in which 0% related to absence of control and 100% to total control of weeds. The regrowth were assessed by comparing the emergence of new tillers in treatments versus the emergence of new tillers in check (non-treated control).
(§4) An analysis was carried out for viability rates applied through a variance analysis and a mean comparison test of Student—Newman-Keuls ([…]) with the ARM® statistical analysis package.

[2] = test system: Trichachne insularis (Digitaria insularis); test: Example 2: regrowth of D. insularis, emergence of new tillers versus non-treated check (Table 17); set-up: scale not given here; details: post emergence; for regrowth of D. insularis 35 DAA: 35 days after application; for regrowth of D. insularis 42 DAA: 42 days after application
Experimental: as §1, §2, §3, §4

[3] = test system: Conyza bonariensis; test: Example 3: control of Conyza bonariensis, viable weeds versus control plot, synergy by Colby; set-up: key: % control, viable weeds vs. untreated control plot; details: weeds 20 cm height at application
Excerpt: Synergism can be described as an interaction where the combined effect of two or more compounds is greater than the sum of the individual effects of each of the compounds. The presence of a synergistic effect in terms of percent control, between two mixing partners (X and Y) can be calculated using the Colby equation (Colby, S. R., 1967, Calculating Synergistic and Antagonistic Responses in Herbicide Combinations, Weeds, 15, 21-22):
When the observed combined control effect is greater than the expected (calculated) combined control effect (E), then the combined effect is synergistic. The synergistic effect may also be present when the observed combined control effect is equal to the expected (calculates) combined control effect, especially when control values over 90 are calculated.
Analogously, the Colby's equation can be used to determine synergism of 3-way and higher mixtures:
as §1
The applications carried out by a back pressure sprayer with T-jet nozzles (XR-110.02) covering 200 liters per hectare. At the time of application, Conyza bonariensis weeds were 20 cm height. The results assessed by the comparison between viable weeds at the control plot and the viable weeds at the treatments plots. To the experiment, the plot consist of a 20 m2 area (5 meters length and 4 meters width).
The synergy was calculated by Colby formula and it expansion for three-way mixtures

SMILES: CCSC(C)CC1CC(=O)C(/C(CC)=N/OC/C=C/Cl)=C(O)C1 (racemic) [Clethodim, (RS)-2-[(E)-1-[(E)-3-chloroallyloxyimino]propyl]-5-[2-(ethylthio)propyl]-3-hydroxycyclohex-2-en-1-one]
- % of control, 28 DAA, Proved [1]: 62.5%
- % of control, 35 DAA, Proved [1]: 60%
- % of control, 42 DAA, Proved [1]: 52.5%
- regrowth of D. insularis 35 DAA [2]: 28
- regrowth of D. insularis 42 DAA [2]: 33.75

SMILES: O=C(O)CNCP(=O)(O)O [Glyphosate, N-(phosphonomethyl)glycine]
- % of control, 28 DAA, Proved [1]: 8.75%
- % of control, 35 DAA, Proved [1]: 6.25%
- % of control, 42 DAA, Proved [1]: 3.75%
- regrowth of D. insularis 35 DAA [2]: 61.25
- regrowth of D. insularis 42 DAA [2]: 67.5
- Control of Conyza bonariensis 7 DAA Field Results ([3]; listed as 1 Glyphosate): 32.50
- Control of Conyza bonariensis 7 DAA Field Results ([3]; listed as 3 Glyphosate): 15.00
- Control of Conyza bonariensis 15 DAA Field Results ([3]; listed as 1 Glyphosate): 65.00
- Control of Conyza bonariensis 15 DAA Field Results ([3]; listed as 3 Glyphosate): 27.50

SMILES: CC(C)N(C)S(=O)(=O)NC(=O)c1cc(-n2c(=O)cc(C(F)(F)F)n(C)c2=O)c(F)cc1Cl [Saflufenacil, N′-{2-chloro-4-fluoro-5-[1,2,3,6-tetrahydro-3-methyl-2,6-dioxo-4-(trifluoromethyl)pyrimidin-1-yl]benzoyl}-N-isopropyl-N-methylsulfannide]
- % of control, 28 DAA, Proved ([1]; listed as 05. Saflufenacil): 5%
- % of control, 28 DAA, Proved ([1]; listed as 06. Saflufenacil): 6.25%
- % of control, 35 DAA, Proved ([1]; listed as 05. Saflufenacil): 5%
- % of control, 35 DAA, Proved ([1]; listed as 06. Saflufenacil): 6.25%
- % of control, 42 DAA, Proved [1]: 2.5%
- regrowth of D. insularis 35 DAA ([2]; listed as 05. Saflufenacil): 63.75
- regrowth of D. insularis 35 DAA ([2]; listed as 06. Saflufenacil): 66.5
- regrowth of D. insularis 42 DAA ([2]; listed as 05. Saflufenacil): 72.5
- regrowth of D. insularis 42 DAA ([2]; listed as 06. Saflufenacil): 78.75
- Control of Conyza bonariensis 7 DAA Field Results ([3]; listed as 4 Saflufenacil): 60.00
- Control of Conyza bonariensis 7 DAA Field Results ([3]; listed as 5 Saflufenacil): 86.25
- Control of Conyza bonariensis 15 DAA Field Results ([3]; listed as 4 Saflufenacil): 56.25
- Control of Conyza bonariensis 15 DAA Field Results ([3]; listed as 5 Saflufenacil): 73.75
